Paper PMC8389614, “A Comparison of Acute Pharmacological Effects of Methylone and MDMA Administration in Humans and Oral Fluid Concentrations as Biomarkers of Exposure” (Biology, 2021)

Experiment: Oral fluid to blood (OF/B) concentration ratio and plasma concentration
Conditions: human

Question: With `CNC(C)C(=O)c1ccc(C)cc1` (stereo not shown) [mephedrone, 4-methylmethcathinone] as the molecule, how does the Kp (oral, 200 mg) read?
Answer: Its Kp is 22.3.

Question: What about the Kp (po, 100 mg) of the same molecule?
Answer: Its Kp is 49.4.

Question: What about the Kp (po, 150 mg) of the same molecule?
Answer: Its Kp is 4.28.

Question: What about the Kp (po, 200 mg) of the same molecule?
Answer: Its Kp is 11.7.
